The source of these data is patent EP2951180B1, “2,6,7,8 SUBSTITUTED PURINES AS HDM2 INHIBITORS” (Merck Sharp & Dohme Corp., priority 2013, dated 2014).

The target of this assay is T1, HDM2 (Homo sapiens, UniProt Q00987).
T1 construct: Thioredoxin (N); made in house; host or cells: E. coli strain BL21(DE3)Rosetta
The assay can be described thus: HDM2 FRET assay (inhibition of binding of FITC labeled p53-pocket peptide to HDM2). Particulars: read-out: FRET IC50. The method, boiled down: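 Compounds were tested in 10-point serial dilution against 0.5 nM recombinant HDM2 binding 3 nM fluorescein-labeled p53-pocket peptide. Detection used 0.25 nM terbium cryptate anti-6xHis antibody in PBS buffer containing 0.01% BSA and 0.01% Tween-20.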

The mark [1] stands for this setting: 0.5 nM HDM2 (residues 17 to 125), 3nM peptide, two hour incubation at room temperature.

Like-named read-outs stand apart in the source and are kept apart here.

In general, IC50 refers to the concentration that gives 50% inhibition.

T1 sequence (Q00987 17-125): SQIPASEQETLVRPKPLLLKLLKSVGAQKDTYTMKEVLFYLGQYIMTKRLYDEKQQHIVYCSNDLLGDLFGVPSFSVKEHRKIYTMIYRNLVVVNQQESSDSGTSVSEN

Consider `C[C@H]1COCCN1c1nc2nc(-c3noc(=O)[nH]3)nc(-c3cncc(Cl)c3)c2n1C[C@H]1CC[C@H](C)CC1` [Example 16.43, 3-{6-(5-chloropyridin-3-yl)-7-[(trans-4-methylcyclohexyl)methyl]-8-[(3S)-3-methylmorpholin-4-yl]-7H -purin-2-yl}-1,2,4-oxadiazol-5(2H)-one], for which, under setting [1], the IC50 is 239 nM. Turning to `C=C(c1nc2nc(-c3noc(=O)[nH]3)nc(N[C@H](C)C3CCC3)c2n1C[C@H]1CC[C@H](C)CC1)C1CCCCC1` [Example 21.19, 3-(6-{[(1R)-1-cyclobutylethyl]amino}-8-(1-cyclohexylethenyl)-7-[(trans-4-methylcyclohexyl)methyl]-7H-purin-2-yl)-1,2,4-oxadiazol-5(4H)-one], the IC50 (Table 21) turned out to be 0.931 nM. For `C[C@@H](Nc1nc(-c2n[nH]c(=O)n2C)nc2nc(N3CCOC[C@H]3c3ccccc3)n(C[C@H]3CC[C@H](C)CC3)c12)C1CCC1` [Example 12.15, 5-(6-{[(1R)-1-cyclobutylethyl]amino}-7-[(trans-4-methylcyclohexyl)methyl]-8-[(3R)-3-phenylmorpholin-4-yl]-7H-purin-2-yl)-4-methyl-2,4-dihydro-3H-1,2,4-triazol-3-one], under setting [1], the IC50 is 14.5 nM. For `C[C@@H](Nc1nc(-c2noc(=O)[nH]2)nc2nc(CC(C)(C)O)n(C[C@H]3CC[C@H](C)CC3)c12)C1CCC1` [Example 22.16, 3-(6-{[(1R)-1-cyclobutylethyl]amino}-8-(2-hydroxy-2-methylpropyl)-7-[(trans-4-methylcyclohexyl)methyl]-7H-purin-2-yl)-1,2,4-oxadiazol-5(4H)-one], the IC50 (Table 22) turned out to be 55.6 nM. Turning to `COCC1CN(c2nc3nc(C(=O)O)nc(N[C@H](C)C4CCC4)c3n2Cc2ccc(C(F)(F)F)cc2)CCO1` (stereo partly drawn) [Example 9.24, 6-{[(1R)-1-cyclobutylethyl]amino}-8-[2-(methoxymethyl)morpholin-4-yl]-7-[4-(trifluoromethyl)benzyl]-7H-purine-2-carboxylic acid], for the setting “Table 9”, the IC50 came to 72.9 nM.

For the compound `Cc1cccc(-c2nc3nc(C(=O)O)nc(N[C@@H](C)C(C)(C)C)c3n2Cc2ccc(C(F)(F)F)cc2)c1` [Example 6.41, 8-(3-methylphenyl)-7-[4-(trifluoromethyl)benzyl]-6-{[(1S)-1,2,2-trimethylpropyl]amino}-7H-purine-2-carboxylic acid], under “Table 6”, the IC50 came to 638 nM. For `C[C@H]1CC[C@H](Cn2c(N3CCOC[C@H]3c3ccccc3)nc3nc(C(=O)O)nc(-c4cccc(Cl)c4)c32)CC1` [Example 16.22, 6-(3-chlorophenyl)-7-[(trans-4-methylcyclohexyl)methyl]-8-[(3R)-3-phenylmorpholin-4-yl]-7H-purine-2-carboxylic acid], the IC50 under setting [1] is 0.68 nM.

`Cc1cccc(-c2nc3nc(C(=O)O)nc(NC(C)(C)C4CC4)c3n2Cc2ccc(Cl)cc2)c1` [Example 6.6, 7-(4-chlorobenzyl)-6-[(1-cyclopropyl-1-methylethyl)amino]-8-(3-methylphenyl)-7H-purine-2-carboxylic acid]: the IC50 (Table 6) is 1650 nM. Take `C[C@@H](Nc1nc(-c2noc(=O)[nH]2)nc2nc(C(C)(O)c3ccccc3)n(C[C@H]3CC[C@H](C)CC3)c12)C1CCC1` (single isomer, unassigned) [Example 22.24]: the IC50 (Table 22) was 33.8 nM. As to `C[C@@H](Nc1nc(C(=O)O)nc2nc(N3CC(C)(C)OC(C)(C)C3)n(Cc3ccc(C(F)(F)F)cc3)c12)C1CCC1` [Example 9.19, 6-{[(1R)-1-cyclobutylethyl]amino}-8-(2,2,6,6-tetramethylmorpholin-4-yl)-7-[4-(trifluoromethyl)benzyl]-7H-purine-2-carboxylic acid], the IC50 (Table 9) stood at 12.4 nM. On the same count and under the same terms, for `C[C@@H](Nc1nc(-c2noc(=O)[nH]2)nc2nc(N(C)CCCN3CCCC3)n(Cc3ccc(C(F)(F)F)cc3)c12)C1CCC1` [Example 9.100, 3-(6-{[(1R)-1-cyclobutylethyl]amino}-8-[methyl(3-pyrrolidin-1-ylpropyl)amino]-7-[4-(trifluoromethyl)benzyl]-7H-purin-2-yl)-1,2,4-oxadiazol-5(4H)-one] the value was 148 nM.

On to `C[C@H]1CC[C@H](Cn2c(N3CCOC[C@H]3c3ccccc3)nc3nc(-c4noc(=O)[nH]4)nc(C4CCCCC4)c32)CC1` [Example 16.165, 3-{6-cyclohexyl-7-[(trans-4-methylcyclohexyl)methyl]-8-[(3R)-3-phenylmorpholin-4-yl]-7H-purin-2-yl}-1,2,4-oxadiazol-5(4H)-one], for which the IC50 under setting [1] was 5.08 nM. As for `COC(c1ccccc1)c1nc2nc(-c3noc(=O)[nH]3)nc(N[C@H](C)C3CCC3)c2n1C[C@H]1CC[C@H](C)CC1` (single isomer, unassigned) [Example 22.19, 3-(6-{[(1R)-1-cyclobutylethyl]amino}-8-[(R or S)-methoxy(phenyl)methyl]-7-[(trans-4-methylcyclohexyl)methyl]-7H-purin-2-yl)-1,2,4-oxadiazol-5(4H)-one], the IC50 (Table 22) turned out to be 7.7 nM. Consider `Cc1csc(CN(C)c2nc3nc(-c4noc(=O)[nH]4)nc(N[C@H](C)C4CCC4)c3n2C[C@H]2CC[C@H](C)CC2)n1` [Example 11.76, 3-(6-{[(1R)-1-cyclobutylethyl]amino}-7-[(trans-4-methylcyclohexyl)methyl]-8-{methyl[(4-methyl-1,3-thiazol-2-yl)methyl]amino}-7H-purin-2-yl)-1,2,4-oxadiazol-5(2H)-one], for which, for the setting “Table 11”, the IC50 was 8.19 nM.

Consider `C[C@@H](Nc1nc(-c2noc(=O)[nH]2)nc2nc([S+]([O-])c3ccccc3)n(C[C@H]3CC[C@H](C)CC3)c12)C1CCC1` (stereo partly drawn) [Example 19.2, 3-[6-{[(1R)-1-cyclobutylethyl]amino}-7-[(trans-4-methylcyclohexyl)methyl]-8-(phenylsulfinyl)-7H-purin-2-yl]-1,2,4-oxadiazol-5(4H)-one], for which the IC50 (Table 19) was found to be 1.77 nM. Consider `Cc1cccc(-c2nc3nc(C(=O)O)nc(NC(C)C4CC4C)c3n2Cc2ccc(C(F)(F)F)cc2)c1` (stereo not shown) [Example 6.38, 6-{[1-(2-methylcyclopropyl)ethyl]amino}-8-(3-methylphenyl)-7-[4-(trifluoromethyl)benzyl]-7H-purine-2-carboxylic acid], for which the IC50 (Table 6) was determined as 530 nM. As for `C[C@@H](Nc1nc(-c2noc(=O)[nH]2)nc2nc(C3CC3)n(C[C@H]3CC[C@H](C)CC3)c12)C1CCC1` [Example 21.27, 3-(6-{[(1R)-1-cyclobutylethyl]amino}-8-cyclopropyl-7-[(trans-4-methylcyclohexyl)methyl]-7H-purin-2-yl)-1,2,4-oxadiazol-5(4H)-one], where the note is “Table 21”, the IC50 is 18 nM. For `CC1CCCN(c2nc3nc(-c4noc(=O)[nH]4)nc(N[C@H](C)C4CCC4)c3n2C[C@H]2CC[C@H](C)CC2)C1c1ccccc1` (stereo partly drawn) [Example 11.7, 3-(6-(((R)-1-cyclobutylethyl)amino)-8-(3-methyl-2-phenylpiperidin-1-yl)-7-((trans-4-methylcyclohexyl)methyl)-7H-purin-2-yl)-1,2,4-oxadiazol-5(4H)-one], the IC50 (Table 11) was determined as 6.34 nM. As to `C[C@@H](Nc1nc(-c2noc(=O)[nH]2)nc2nc(N(C)Cc3cscn3)n(C[C@H]3CC[C@H](C)CC3)c12)C1CCC1` [Example 11.74, 3-(6-{[(1R)-1-cyclobutylethyl]amino}-7-[(trans-4-methylcyclohexyl)methyl]-8-[methyl(1,3-thiazol-4-ylmethyl)amino]-7H-purin-2-yl)-1,2,4-oxadiazol-5(2H)-one], the IC50 (Table 11) is 133 nM.
